For seven compounds, viscosity and electrical conductivity results are on record in a compilation of properties of binary mixtures.

A short description of this data set: xn = mol fraction of the nth substance listed. Particulars: for electrical conductivity: 298.1 K.

Each structure is given as a SMILES string.

For orientation: viscosity means the resistance of a fluid to flow. A lower viscosity goes with a thin fluid. `Oc1cccnc1` + CCCC[n+]1ccn(C)c1.[Cl-]: for the setting “293.15 K, 100 kPa, x1 = 0.5”, the viscosity stood at 153.7 mPa·s.

With `CCCC[N+](CCCC)(CCCC)CCCC.[Cl-]` + OCC(O)CO, the viscosity (318.15 K, 100 kPa, x1 = 0.333) was 57.8 mPa·s.

Turning to `CCCCCCC[N+](CCCCCCC)(CCCCCCC)CCCCCCC.[Br-]` + CCCCCCCCCC(=O)O, the viscosity (318.15 K, 100 kPa, x1 = 0.333) stood at 205 mPa·s.

In turn, `C[N+](C)(C)CCO.O=S(=O)([N-]S(=O)(=O)C(F)(F)F)C(F)(F)F` + OCCOCCOCCOCCO yielded a viscosity (298.15 K, 101 kPa, x2 = 0.5) of 87 mPa·s.

As to `CCCC[n+]1ccn(C)c1.F[B-](F)(F)F` + CO, the electrical conductivity (101 kPa, x1 = 0.0155) turned out to be 0.884 S/m and the electrical conductivity (101 kPa, x1 = 0.0244) is 1.16 S/m.

Take `CCCC[n+]1ccn(C)c1C.F[B-](F)(F)F` + OCCOCCOCCOCCO: the viscosity by setting is: (298.15 K, 101 kPa, x2 = 0) 573 mPa·s; (298.15 K, 101 kPa, x2 = 0.5) 82.1 mPa·s.

Compound `c1ccccc1` + CCCCCCCCn1cc[n+](C)c1.O=S(=O)([N-]S(=O)(=O)C(F)(F)F)C(F)(F)F showed a viscosity (293 K, 101 kPa, x2 = 0) of 0.641 mPa·s.
